{
  "source": "patent US6548543B1",
  "about": "“Remedies or preventives containing cyclopentenone compounds as the active ingredient” (Takara Shuzo Co., Ltd., priority 1998, dated 2003)",
  "key": {"[1]": {"system": "HL-60 (ATCC CCL-240) cells", "test": "Viability and apoptosis of HL-60 cells (Trypan Blue, optical microscope)", "format": "cell-based", "details": "Homo sapiens, 24 hours, Trypan Blue, read-out: Viability50 (concentration that results in a viability of 50%)", "experimental": "HL-60 (ATCC CCL-240) cells were cultured at 37° C. in RPMI 1640 medium (Bio Whittaker) containing 10% fetal calf serum (FCS; JRH) which had been treated at 56° C. for 30 minutes and suspended in RPMI 1640 medium at a concentration of 2.5×10^5 cells/5 ml.\n10 μl each of solutions of diisobutyrylcyclopentenone, dimethoxyacetylcyclopentenone, dimethylfumarylcyclopentenone or dimethylmaleylcyclopentenone in 70% ethanol in water diluted to varying concentrations was added to 5 ml of the suspension. The mixtures were incubated at 37° C. for 24 hours in the presence of 5% Co2. 10 μl of aqueous actinomycin D (Sigma) solution (0.5 mg/ml), which is known as a reagent that induces apoptosis, was used in place of the sample and the mixture was incubated under the same conditions for confirmation.\nThe cultured cells were examined under an optical microscope.\nFurthermore, a portion of the cells cultured as described above was stained with 0.4% Trypan Blue and examined under an optical microscope. The number of viable cells which were not stained and the number of dead cells which were stained blue were counted. The concentration of each of the samples that results in a viability of 50% (Viability50 μM) was determined."}, "[2]": {"target": "T1, topoisomerase II (Homo sapiens, UniProt P11388)", "T1 construct": "purchased TopoGEN", "T1 sequence (P11388 whole entry)": "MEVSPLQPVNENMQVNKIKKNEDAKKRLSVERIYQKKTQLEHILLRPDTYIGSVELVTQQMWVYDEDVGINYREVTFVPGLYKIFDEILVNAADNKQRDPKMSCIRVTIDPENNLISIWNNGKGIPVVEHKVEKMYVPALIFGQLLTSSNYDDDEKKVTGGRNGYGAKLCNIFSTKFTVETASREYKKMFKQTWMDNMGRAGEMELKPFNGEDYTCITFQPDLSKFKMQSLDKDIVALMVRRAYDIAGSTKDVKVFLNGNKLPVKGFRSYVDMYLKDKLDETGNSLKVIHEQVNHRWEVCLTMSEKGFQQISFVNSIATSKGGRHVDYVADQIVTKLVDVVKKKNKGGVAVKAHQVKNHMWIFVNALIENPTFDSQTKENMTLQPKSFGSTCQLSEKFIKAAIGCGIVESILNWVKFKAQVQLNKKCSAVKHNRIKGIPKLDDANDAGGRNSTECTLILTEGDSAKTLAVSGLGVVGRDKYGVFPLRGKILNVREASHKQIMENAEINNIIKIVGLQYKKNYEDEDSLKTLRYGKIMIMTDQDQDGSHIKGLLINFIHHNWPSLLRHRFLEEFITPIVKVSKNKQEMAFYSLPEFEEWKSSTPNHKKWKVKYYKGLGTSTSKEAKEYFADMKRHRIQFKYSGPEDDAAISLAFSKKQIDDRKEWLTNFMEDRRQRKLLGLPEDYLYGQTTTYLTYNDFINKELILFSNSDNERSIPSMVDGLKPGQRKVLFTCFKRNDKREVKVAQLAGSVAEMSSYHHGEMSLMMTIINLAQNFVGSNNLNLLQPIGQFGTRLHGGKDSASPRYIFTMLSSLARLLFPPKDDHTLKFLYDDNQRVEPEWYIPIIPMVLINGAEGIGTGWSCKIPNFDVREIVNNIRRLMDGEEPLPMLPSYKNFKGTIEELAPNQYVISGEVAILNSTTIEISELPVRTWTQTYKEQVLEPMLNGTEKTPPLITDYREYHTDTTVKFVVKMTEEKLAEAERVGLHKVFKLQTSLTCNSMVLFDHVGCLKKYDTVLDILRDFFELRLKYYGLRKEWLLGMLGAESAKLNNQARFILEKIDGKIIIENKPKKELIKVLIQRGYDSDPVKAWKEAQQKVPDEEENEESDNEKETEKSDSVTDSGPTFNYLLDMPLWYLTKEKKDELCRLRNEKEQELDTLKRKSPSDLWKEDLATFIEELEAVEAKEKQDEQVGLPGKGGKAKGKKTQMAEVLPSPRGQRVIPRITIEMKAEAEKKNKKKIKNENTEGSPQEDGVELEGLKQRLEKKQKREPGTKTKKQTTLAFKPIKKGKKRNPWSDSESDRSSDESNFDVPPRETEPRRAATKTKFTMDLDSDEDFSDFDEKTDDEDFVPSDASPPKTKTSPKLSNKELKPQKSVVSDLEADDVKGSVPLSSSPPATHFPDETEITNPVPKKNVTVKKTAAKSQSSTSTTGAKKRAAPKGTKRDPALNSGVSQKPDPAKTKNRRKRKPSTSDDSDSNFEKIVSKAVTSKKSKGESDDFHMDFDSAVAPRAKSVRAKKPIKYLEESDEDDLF", "test": "Topoisomerase II inhibition, pBR322 DNA relaxation", "format": "biochemical", "details": "37° C., 30 minutes", "experimental": "(1) 2 μl of topoisomerase II (TopoGEN; 2 units/μl), 2 μl of 10-fold concentrated buffer [0.5 M Tris-HCl (pH 8.0), 1.2 M KCl, 0.1 M MgCl2, 2.5 mM adenosine triphosphate, 5 mM dithiothreitol], 2 μl of 0.1% bovine serum albumin (Takara Shuzo), 11 μl of distilled water and 2 μl of distilled water (control) or 2 μl of one of aqueous solutions of dipropionylcyclopentenone, diisobutyrylcyclopentenone, dibenzoylcyclopentenone, dihexanoylcyclopentenone, di-2-hexenoylcyclopentenone, dimethoxyacetylcyclopentenone, dimethylfumarylcyclopentenone or dimethylmaleylcyclopentenone at varying concentrations were mixed together. 1 μl of 0.25 μg/μl pBR322 DNA (Takara Shuzo) was added thereto. The resulting mixture was reacted at 37° C. After reacting for 30 minutes, 2 μl of an aqueous solution containing 1% sodium dodecyl sulfate, 50% glycerol and 0.02% Bromophenol Blue was added thereto to stop the reaction.\n20 μl of the reaction mixture was applied to 1% agarose gel prepared using agarose L03 (Takara Shuzo) and TAE buffer [40 mM Tris, 5 mM sodium acetate, 1 mm ethylenediaminetetraacetic acid disodium salt (EDTA); adjusted to pH 7.8 using acetic acid] and electrophoresed in TAE buffer. After electrophoresis, the gel was soaked in a 1 μg/ml aqueous ethidium bromide solution. The gel was exposed to ultraviolet rays to visualize the electophoretic pattern of DNA."}, "[3]": {"system": "NK cells", "format": "in vivo, ddY mice", "details": "mice administered intraperitoneally", "experimental": "ddY mice (female, 7 weeks old) were purchased from Japan SLC and pre-bred for 1 week before using in experiments.\n1×10^6 Ehrlich ascites carcinoma cells were intraperitoneally inoculated to each mouse. 10 mg/kg of cyclopentenone, 30 mg/kg of GM or 10 mg/kg of dipropionylcyclopentenone was intraperitoneally administered to the mouse on the day after the inoculation. Saline was administered to a control mouse.\nA spleen was taken out from the mouse 10 days after the inoculation with cancer cells, finely minced and suspended in RPMI-1640 medium containing 10% FCS (HyClone) to obtain a single cell suspension. Adhesive cells adhered to a plastic Petri dish were removed from the cell suspension and non-adhesive cells were used as NK cells.\nThe NK cells were suspended in RPMI-1640 medium containing 10% FCS at a concentration of 6×10^6/ml. 100 μl/well of the suspension was seeded into a microtiter plate.\nTarget cells were prepared as follows. 3700 kBq of ^51Cr (Amersham) was added to 1×10^6 YAC-1 cells (Dainippon Pharmaceutical). The cells were cultured at 37° C. for 1 hour for labeling. The labeled cells were washed twice and then suspended in RPMI-1640 medium containing 10% FCS at a concentration of 2×10^5 cells/ml. […] The radioactivity (experimental value) was measured using an auto gamma counter.\n100 μl of the culture medium was added to the reaction system in place of the NK cells and the radioactivity was measured in order to measure the radioactivity spontaneously released from the target cells (control value).\nFurthermore, the radioactivity released into the supernatant when 1% Triton (Nacalai Tesque) was added to the reaction system to lyse the 51Cr-labeled YAC-1 cells was measured in order to measure the total radioactivity contained in the reaction system (total radioactivity value).\nThe cytotoxicity (%) specifically mediated by the NK cells can be determined according to the following equation.\nCytotoxicity (%)=[(experimental value−control value)/(total radioactivity value−control value)]×100"}, "[4]": {"system": "spleen lymphocytes stimulated with Ehrlich ascites carcinoma cells", "test": "Cancer cell-specific proliferation of spleen lymphocytes from treated tumor-bearing mice", "format": "in vivo, ddY mice", "details": "for Growth of spleen lymphocytes on stimulation with cancer cells (statement): mice administered intraperitoneally", "experimental": "ddY mice (female, 7 weeks old) were purchased from Japan SLC and pre-bred 1 week before using in experiments.\n1×10^6 Ehrlich ascites carcinoma cells were intraperitoneally inoculated to each mouse. 10 mg/kg of cyclopentene, 30 mg/kg of GM or 10 mg/kg of dipropionylcyclopentene was intraperitoneally administered to the mouse on the day after the inoculation. Saline was administered to a control mouse.\nA spleen was taken out from the mouse 10 days after the inoculation with cancer cells, finely minced and suspended in RPMI-1640 medium (Gibco) containing 10% FCS (HyClone) to obtain a single cell suspension. Adhesive cells in the cell suspension adhered to a plastic Petri dish were removed and non-adhesive cells were used as spleen lymphocytes.\nThe spleen lymphocytes were suspended in RPMI-1640 medium containing 10% FCS at a concentration of 2×10^6/ml. 100 μl/well of the suspension was seeded into a microtiter plate.\nStimulated cells were prepared as follows. Mitomycin C (Kyowa Hakko Kogyo) was added to a concentration of 50 μg/ml to Ehrlich ascites carcinoma cells suspended in RPMI-1640 medium at a concentration of 2×10^6 cells/ml. The cells were treated at 37° C. for 30 minutes, washed twice and then suspended in RPMI-1640 medium containing 10% FCS to prepare stimulated cells at a concentration of 2×10^6 cells/ml. 100 μl of the thus prepared stimulated cells was overlaid onto each well of the plate into which 100 μl/well of the spleen lymphocytes had been added. The plate was incubated at 37° C. for 5 days in a 5% CO2 incubator. 37 kBq of ^3H-thymidine (Daiichi Pure Chemicals) was added to the well to pulse-label the cells on the day before the completion of the cultivation. After cultivation, the cells were harvested on a glass filter to measure the radioactivity."}, "[5]": {"system": "adhesion between vascular endothelial cells and HL-60 cells", "test": "Adhesion of HL-60 cells to TNF-α-stimulated vascular endothelial cells", "format": "cell-based, Human", "details": "for Adhesion rate: TNF-α-stimulated endothelial cells; for Suppression of TNF-α-induced increase in adhesion rate (statement): 10^−7 to 10^−4 M, dose-dependent", "experimental": "Human vascular endothelial cells (sold by Sanko Junyaku) suspended in RPMI-1640 medium (Gibco) containing 10% FCS (HyClone) at a concentration of 1×10^5 cells/ml. 100 μl/well of the suspension was seeded into a 96-well microtiter plate.\n100 U/ml of human recombinant TNF-α (Promega) was added to monolayer of vascular endothelial cells after incubation at 37° C. for 2 days in a 5% CO2 incubator. The plate was incubated 37° C. for 6 hours in a 5% CO2 incubator to prepare vascular endothelial cells stimulated with TNF-α.\nOn the other hand, cyclopentenone, GM or dipropionylcyclopentenone at a varying concentration was added to HL-60 cells suspended in RPMI-1640 medium containing 10% FCS at a concentration of 1×10^6 cells/ml. The cells were cultured at 37° C. for 3 hours in a 5% CO2 incubator. After cultivation, 5 μM of 5(-and-6)-carboxyfluorescein diacetate, succinimide ester (Molecular Probe) as a fluorescent agent was added thereto and reacted at 37° C. for 10 minutes. The cells were washed twice with RPMI-1640 medium and suspended in RPMI-1640 medium containing 10% FCS to prepare a suspension of fluorescence-labeled HL-60 cells at a concentration of 1×10^6 cells/ml.\n100 μl/well of the fluorescence-labeled HL-60 cells were overlaid onto the vascular endothelial cells stimulated with TNF-α. Cyclopentenone, GM or dipropionylcyclopentenone at a varying concentration was added thereto. The plate was incubated at 37° C. for 20 minutes in a 5% CO2 incubator for adhesion reaction between vascular endothelial cells and HL-60 cells.\nAfter the adhesion reaction, the plate was washed to remove non-adhesive cells. 1% Triton X (Nacalai Tesque) was added thereto to destroy adhesive cells. The fluorescence intensity was measured using filters for 485/22 nm (excitation) and 530/25 nm (emission).\nThe adhesion rate which represents the ratio of cells adhered to vascular endothelial cells was determined defining the fluorescence intensity for 1×10^5 fluorescence-labeled cells as 100%."}},
  "data": [
    {"smiles": "COC(=O)/C=C\\C(=O)OC1C=CC(=O)C1OC(=O)CCC(=O)OC", "note": "(centres unmarked) [Dimethylmaleylcyclopentenone, dimethylmaleylcyclopentenone]", "values": [
      {"measurement": "IC50", "setting": "[1]", "result": 3.4, "unit": "µM"},
      {"measurement": "Concentration at which change of DNA from superhelical type to relaxed type was partially or completely inhibited", "setting": "[2]", "result": "≥ 5", "unit": "µM"}
    ]},
    {"smiles": "O=C1C=CC(O)C1O", "note": "(centres unmarked) [Cyclopentenone, 4,5-dihydroxy-2-cyclopenten-1-one]", "values": [
      {"measurement": "Activation of NK cells (statement)", "setting": "[3]", "result": "Activation of NK cells was observed"},
      {"measurement": "3H-thymidine uptake", "setting": "[4]; 10 mg/kg intraperitoneal, no stimulation with cancer cell", "result": 9680, "unit": "CPM"},
      {"measurement": "3H-thymidine uptake", "setting": "[4]; 10 mg/kg intraperitoneal, stimulation with cancer cell", "result": 25756, "unit": "CPM"},
      {"measurement": "Growth of spleen lymphocytes on stimulation with cancer cells (statement)", "setting": "[4]", "result": "significantly enhanced"},
      {"measurement": "Adhesion rate", "setting": "[5]; 0.1 μM", "result": 51.7, "unit": "%"},
      {"measurement": "Adhesion rate", "setting": "[5]; 1 μM", "result": 46.0, "unit": "%"},
      {"measurement": "Adhesion rate", "setting": "[5]; 10 μM", "result": 22.2, "unit": "%"},
      {"measurement": "Adhesion rate", "setting": "[5]; 100 μM", "result": 17.9, "unit": "%"},
      {"measurement": "Suppression of TNF-α-induced increase in adhesion rate (statement)", "setting": "[5]", "result": "suppressed"}
    ]},
    {"smiles": "N[C@@H](CCC(=O)N[C@@H](CSC1C=C(O)C(=O)C1)C(=O)NCC(=O)O)C(=O)O", "note": "(some centres unmarked) [GM, 2-hydroxy-4-glutathion-S-yl-2-cyclopenten-1-one]", "values": [
      {"measurement": "Activation of NK cells (statement)", "setting": "[3]", "result": "Activation of NK cells was observed"},
      {"measurement": "3H-thymidine uptake", "setting": "[4]; 30 mg/kg intraperitoneal, no stimulation with cancer cell", "result": 8700, "unit": "CPM"},
      {"measurement": "3H-thymidine uptake", "setting": "[4]; 30 mg/kg intraperitoneal, stimulation with cancer cell", "result": 36291, "unit": "CPM"},
      {"measurement": "Growth of spleen lymphocytes on stimulation with cancer cells (statement)", "setting": "[4]", "result": "significantly enhanced"},
      {"measurement": "Adhesion rate", "setting": "[5]; 0.1 μM", "result": 53.9, "unit": "%"},
      {"measurement": "Adhesion rate", "setting": "[5]; 1 μM", "result": 48.3, "unit": "%"},
      {"measurement": "Adhesion rate", "setting": "[5]; 10 μM", "result": 23.9, "unit": "%"},
      {"measurement": "Adhesion rate", "setting": "[5]; 100 μM", "result": 16.3, "unit": "%"},
      {"measurement": "Suppression of TNF-α-induced increase in adhesion rate (statement)", "setting": "[5]", "result": "suppressed"}
    ]}
  ]
}
